This is an account of results in patent US20090099346A1 (priority 2003, published 2009).

A short description of series [1]: Powder X-ray diffraction of commercial batches after accelerated storage. The class given is physicochemical. Particulars: 3 commercial batches, 6 months of accelerated storage conditions (40° C.). How it is done:
In this example, powder X-ray diffraction spectra of crystalline epirubicin hydrochloride of type I and type II were obtained. Powder X-ray diffraction spectra were measured using a Rigaku Cu Anode X-ray Diffractometer (MiniFlex). The conditions for analysis of the samples was as follows:
FIGS. 16, 18 and 20 illustrate the X-Ray Diffraction spectra of the mentioned above 3 commercial batches, undergone 6 months of Accelerated storage conditions (40° C.).

Series [2] is described as follows: Thermal stability study under accelerated storage conditions (HPLC assay, doxorubicinone quantity, total impurities). Type of series: physicochemical. The procedure:
The type II crystalline epirubicin hydrochloride obtained in Example 1 and type I crystalline epirubicin hydrochloride obtained in reference Example 3 were each kept at a temperature 40° C. for six months, thereby simulating accelerated storage conditions. The thermal stability was investigated and measured by studying the following parameters: (1) assay (HPLC method), (2) doxorubicinone quantity (doxorubicinone, an aglycone of epirubicin, is the major epirubicin degradation product), and (3) total impurities.

In the case of `COc1cccc2c1C(=O)c1c(O)c3c(c(O)c1C2=O)C[C@@](O)(C(=O)CO)C[C@@H]3OC1CC(N)C(O)C(C)O1.Cl` (stereo partly drawn) [epirubicin hydrochloride], the “thermal stability by X-Ray Diffraction spectra” value in series [1] is listed as “thermally stable”. The shelf life entry in series [2] (concluded from the 40° C. storage study, compared with type I) is listed as “longer than the shelf life of type I crystalline epirubicin hydrochloride”. Also, in series [2] (kept at 40° C. for six months, compared with type I crystalline epirubicin hydrochloride), the thermal stability result was “much greater thermal stability than type I crystalline epirubicin hydrochloride”.
